Data on one substance can be found in patent US6670339B1, “Use of sulfated oligosaccharides in lowering blood triglyceride levels” (The Australian National University, priority 1997, dated 2003).

Assay [1] concerns blood triglyceride levels. The experiment in a line: Blood triglyceride levels in male and female Lewis rats after 7 days of twice daily s.c. injection. In kind it is in vivo. The protocol:
2. […] Thus, on day 0 the rats were weighed and placed into three groups of the same sex, containing three rats each based on weight. On every subsequent morning their weights were recorded. Each morning beginning on day 1 at approximately 8.00 AM and each evening at approximately 8.00 PM the rats were injected in the following manner. The control groups received sterile normal saline solution 100 μl s.c. The first treatment groups of male and female rats received the sulfated mannopentaose phosphate, at a dose of 10 mg/kg s.c. in 100 μl of sterile saline solution (total daily dose 20 mg/kg). The second treatment groups of male and female rats received the sulfated mannopentaose phosphate at a dose of 50 mg/kg s.c. (total daily dose 100 mg/kg). This injection routine was repeated for a total of 7 days.
On morning of day 8 of the experiment, the rats were anaesthetised and blood was taken for triglyceride analysis. Triglyceride levels were determined using a commercially available assay kit (Sigma, Triglyceride—GPO-Tinder). […] Thus, blood triglyceride levels in the male control group averaged 1.7±0.21 mmol/L, in the […] male treatment group averaged 0.9±0.2 mmol/L and in the 100 mg/kg/day male treatment group averaged 0.3±0.0 mmol/L. Blood triglyceride levels in the female control group averaged 1.13±0.19 mmol/L, and in the 20 mg/kg/day female treatment group averaged 0.5±0.0 mmol/L and in the 100 mg/kg/day female treatment group averaged 0.17±0.03 mmol/L.

The test system of assay [2] is blood triglyceride levels. In words: Blood triglyceride levels in mice after alternate daily s.c. injection. In kind it is in vivo, CBA/h female mice. Conditions: 50 mg/kg s.c. on alternate days, 4 injections, 24 hours after last injection; control 1.11±0.1. As to the method: Thus, 10 CBA/h female mice 8-10 weeks old were weighed and divided into two groups of 5 mice each based on weight. Mice in the control group were injected with sterile normal saline solution 100 μl s.c. on alternate days for a total of 4 injections. Mice in the treatment group were injected with the sulfated mannopentaose phosphate at a dose of 50 mg/kg s.c. on alternate days for a total of 4 injections. Twenty-four hours following the last injection, blood (50 μl) was collected from the tail veins of each animal and assayed for triglyceride levels (Sigma, Triglyceride—GPO-Trinder). Blood triglyceride levels in the control group averaged 1.11±0.1 mM and blood triglyceride levels in the treatment group averaged 0.64±0.04 mM.

In assay [3] the test system is blood triglyceride levels. In words: Blood triglyceride levels in mice under continuous infusion by mini-osmotic pump. In kind it is in vivo, CBA/h female mice. The protocol: Thus, 10 CBA/h female mice 8-10 weeks old were weighed and divided into two groups of 5 mice each based on weight. Mice in the control group were implanted subcutaneously with a mini-osmotic pump (Alzet 2001) containing sterile normal saline solution. Mice in the treatment group were implanted subcutaneously with a mini-osmotic pump containing the sulfated mannopentaose phosphate which delivered the sulfated mannopentaose phosphate at a dose of 50 mg/kg/day. At the end of the 7 day period over which the mini-osmotic pumps delivered their payload, blood (50 μl) was collected from the tail veins of mice from both groups and assayed for triglycerides (Sigma, Triglyceride—GPO-Trinder). Triglyceride levels in the blood from mice in the control group averaged 1.49±0.23 mM and triglyceride levels in the blood of mice in the treatment group averaged 1.01±0.07 mM. One week following the treatment period, blood triglyceride levels were measured again in each group and levels in the treatment group had returned to normal, or those approximating the control group. Thus, at this point levels of triglycerides in the blood of mice in the control group averaged 1.29±0.08 mM and levels of triglycerides in the blood of mice in the treatment group averaged 1.27±0.06 mM.

The target in assay [4] is T1, bovine milk lipoprotein lipase (Bos taurus, UniProt P11151).
T1 construct: purified from bovine milk as previously described; from tissue; host or cells: bovine milk
T1 sequence (P11151 29-478): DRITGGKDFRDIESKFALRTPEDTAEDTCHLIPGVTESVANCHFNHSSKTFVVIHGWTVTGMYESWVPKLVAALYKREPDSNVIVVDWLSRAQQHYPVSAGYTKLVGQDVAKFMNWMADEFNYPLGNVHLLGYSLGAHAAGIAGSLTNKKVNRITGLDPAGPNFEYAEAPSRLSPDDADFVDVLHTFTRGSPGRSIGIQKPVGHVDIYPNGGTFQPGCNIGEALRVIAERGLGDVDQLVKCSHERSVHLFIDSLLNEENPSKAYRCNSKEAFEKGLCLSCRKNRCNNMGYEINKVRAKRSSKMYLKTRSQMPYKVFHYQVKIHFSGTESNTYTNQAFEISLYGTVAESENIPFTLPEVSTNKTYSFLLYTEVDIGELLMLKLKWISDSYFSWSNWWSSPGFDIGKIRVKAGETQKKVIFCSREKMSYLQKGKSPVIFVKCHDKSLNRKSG
The experiment in a line: Inhibition of binding of biotinylated heparin/heparan sulfate to immobilised lipoprotein lipase. The protocol:
As a more rapid and direct means of measuring the ability of different sulfated oligosaccharides to release lipoprotein lipase from the endothelium, an in vitro assay for this effect was developed. The assay involved immobilising lipoprotein lipase (10 μg/ml in PBS, 15 hr, 4° C.), purified from bovine milk as previously described^12, in 96 well plastic microplates (50 μl/well). Non-specific binding sites were then blocked by the addition of 200 μl/well of PBS containing 1% (w/v) bovine serum albumin (BSA) for 2 hr at 4° C. Following three washes with 200 μl/well of PBS/0.05% Tween 20 (PBST), 50 μl/well of either biotinylated bovine lung heparin or biotinylated porcine mucosal heparan sulfate (Sigma), used at either 1 or 10 μg/ml, was added and incubated for 2 hr at 4° C. Following three washes with PBST, 50 μl/well of europeum-streptavidin (1 ng/ml in PBS/1% BSA) was added for 1 hr at 4° C., the plate again washed three times with PBST, enhancement solution (50 μl/well) added and bound europeum measured by time resolved fluorescence detection using a Delfia Research Fluorometer (Wallac, Turku, Finland). Inhibition assays measured the ability of different sulfated oligosacchandes to inhibit the binding of biotinylated heparan/heparin sulfate to the immobilised lipoprotein lipase enzyme.

In the case of “sulfated mannopentaose phosphate [PI-88 (15 SO4/molecule)]”, the blood triglyceride levels was found to be 0.5 ± 0.0 mmol/L in assay [1] (female Lewis rats, 20 mg/kg/day s.c., blood on day 8, control 1.13±0.19); 0.17 ± 0.03 mmol/L in assay [1] (female Lewis rats, 100 mg/kg/day s.c., blood on day 8, control 1.13±0.19); 0.3 ± 0.0 mmol/L in assay [1] (male Lewis rats, 100 mg/kg/day s.c., blood on day 8, control 1.7±0.21); 0.9 ± 0.2 mmol/L in assay [1] (male Lewis rats, 'mg/kg/day' group (lower dose), s.c. twice daily, blood on day 8, control 1.7±0.21); 0.64 ± 0.04 mM in assay [2]. For the same substance, the “triglyceride levels in the blood” value in assay [3] (50 mg/kg/day by s.c. mini-osmotic pump, end of 7 day period, control 1.49±0.23) turned out to be 1.01 ± 0.07 mM; in assay [3] (one week following the 7 day infusion of 50 mg/kg/day, control 1.29±0.08) it was 1.27 ± 0.06 mM. Besides, the “IC50, inhibition of binding of Biotinylated Heparin (1 μg/ml) to lipoprotein lipase” value in assay [4] (biotinylated bovine lung heparin 1 μg/ml) is 1 µg/mL. Besides, the “IC50, inhibition of binding of Biotinylated Heparin (10 μg/ml) to lipoprotein lipase” value in assay [4] (biotinylated bovine lung heparin 10 μg/ml) came out at 3 µg/mL. Also, the “IC50, inhibition of binding of Biotinylated Heparan Sulfate (10 μg/ml) to lipoprotein lipase” value in assay [4] (biotinylated porcine mucosal heparan sulfate 10 μg/ml) came out at 0.1 µg/mL. Further, in assay [4] (summary of Table 1), the “inhibitory activity on lipoprotein lipase binding to heparin/heparan sulfate, in words” value was “potent inhibitors”.
